Reference: article PMC10761937, “Functional engineering of human iPSC‐derived parasympathetic neurons enhances responsiveness to gastrointestinal hormones” (FEBS Open Bio, 2023)

How the values were obtained:
GLP1R‐neurons = experiment: MEA recording of neuronal firing, GLP1R‐neurons; assay type: cell-based, human; conditions: 10 nM GLP1; day 27; 0 nM n = 31 electrodes, 10 nM n = 34 electrodes; 5 min before and after ligand addition
Procedure: (§1) Before initiating differentiation, the iPSCs (1–2 × 10^5 cells·cm^−2; Cell lines and cell culture section) were transferred to 6‐well plates (Corning, Inc., Corning, NY, USA) coated with 2‐methacryloyloxyethyl phosphorylcholine (MPC) polymer (Lipidure CM5206E; NOF, Tokyo, Japan). The cells were maintained in mTeSR1 cGMP medium containing 10 μM Y‐27632 (Fujifilm Wako Pure Chemical Industries) for 2 or 3 days to form embryoid body (EBs) in a rotary shaker at 95 r.p.m. (OS‐762RC; Optime, Tokyo, Japan). Subsequently, iPSCs were differentiated into neural crest cells (NCCs), as previously reported. Briefly, NCCs were induced from Ebs using knockout serum replacement (KSR) medium and N2 medium with graded addition of nerve growth factors and signaling factors. KSR medium was composed of DMEM‐F12 (Fujifilm Wako Pure Chemical Industries), 20% KSR (Thermo Fisher Scientific), 1% NEAA, 1% monothioglycerol (Fujifilm Wako Pure Chemical Industries), and 1% P/S. N2 medium consisted of DMEM‐F12, 1% N2 supplement (Fujifilm Wako Pure Chemical Industries), 1% NEAA, and 1% P/S. When EB formation was considered day 0 of induction, the medium was changed at days 2, 5, 7, 9, and 12. […]

rat nodal ganglion cells = conditions: various concentrations; ref [31], [32], [33], [34]; cited from earlier work
Excerpt: Previous reports indicate that rat nodal ganglion cells respond to various concentrations of hormones, including CCK, GLP1, PYY, and 5‐HT [31, 32, 33, 34]. […] However, it is noteworthy that the overexpression of these receptors in our model may not reconstruct natural expres ...

NPY2R‐neurons = experiment: MEA recording of neuronal firing, NPY2R‐neurons; assay type: cell-based, human; conditions: PYY, 10 nM or 100 nM (both printed in Fig. 6 legend); day 27; 0 nM n = 8 electrodes, 100 nM n = 6 electrodes; Fig. 6F
Procedure: as §1

Row | Substance | Change rate of firing frequency (GLP1R‐neurons) | Response of rat nodal ganglion cells (rat nodal ganglion cells) | Firing frequency (NPY2R‐neurons)
1 | GLP1: GLP1 (4280‐v; Peptide Institute, Inc.); GLP1 (7–37) in Ca2+ imaging (HAEGTFTSDVSSYLEGQAAKEFIAWLVKGRG; Glucagon-like peptide 1(7-37); UniProt P01275 98-128, looked up) | increased the change rate of firing frequency | respond | 
2 | PYY: PYY (4400‐v; Peptide Institute, Inc.); PYY (3–36) in Ca2+ imaging |  | respond | significantly increased fluorescence intensity and firing frequency
